Test results published in patent US8357673B2, “4-arylazo-3,5-diamino-pyrazole compounds and use thereof” (Univerzita Palackeho V Olomouci, priority 2004, dated 2013).

What was measured:
CDK1/cyclin B = molecular target: T1, CDK1/cyclin B (Homo sapiens, UniProt P06493); experiment: CDK1/cyclin B kinase inhibition assay (histone H1, [γ-33P]ATP); format: biochemical; conditions: averaged from triplicates; 15 μM ATP
T1 construct: made in house; host or cells: Sf9 insect cells (baculovirus co-infection)
T1 sequence (P06493 whole entry): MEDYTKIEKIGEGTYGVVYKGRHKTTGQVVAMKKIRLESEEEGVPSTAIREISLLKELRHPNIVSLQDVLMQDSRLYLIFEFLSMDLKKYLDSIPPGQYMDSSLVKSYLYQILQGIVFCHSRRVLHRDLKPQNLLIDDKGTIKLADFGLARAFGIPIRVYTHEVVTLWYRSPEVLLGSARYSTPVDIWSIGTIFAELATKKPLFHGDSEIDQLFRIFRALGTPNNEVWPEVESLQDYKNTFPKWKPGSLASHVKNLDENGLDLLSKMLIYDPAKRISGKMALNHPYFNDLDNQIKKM
T1 sequence (P14635 whole entry partner): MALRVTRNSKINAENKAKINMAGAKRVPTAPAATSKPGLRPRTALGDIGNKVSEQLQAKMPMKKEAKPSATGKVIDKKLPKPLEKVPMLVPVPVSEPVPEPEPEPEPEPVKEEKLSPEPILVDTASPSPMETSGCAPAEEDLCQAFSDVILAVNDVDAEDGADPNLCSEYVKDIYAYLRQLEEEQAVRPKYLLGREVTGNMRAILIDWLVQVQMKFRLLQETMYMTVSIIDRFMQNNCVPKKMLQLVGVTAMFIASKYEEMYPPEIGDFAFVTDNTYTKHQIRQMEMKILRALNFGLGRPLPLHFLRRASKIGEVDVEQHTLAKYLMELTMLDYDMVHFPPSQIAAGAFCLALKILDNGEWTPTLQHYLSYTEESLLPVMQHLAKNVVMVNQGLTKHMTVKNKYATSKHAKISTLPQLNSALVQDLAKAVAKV
Protocol: (§1) CDK1/cyclin B and CDK2/cyclin E kinases were produced in Sf9 insect cells coinfected with appropriate baculoviral constructs. The cells were harvested 70 h post infection, incubated in lysis buffer (50 mM Tris pH 7.4, 150 mM NaCl, 5 mM EDTA, 20 mM NaF, 1% Tween 20, 1 mM DTT, 0.1 mM PMSF, 0.5 μg/ml leupeptine, 1 μg/ml aprotonine) for 30 min on ice and the soluble fraction was recovered by centrifugation at 20.000 g for 10 min. The enzymes were purified on NiNTA column (Qiagen), stored at 4° C. and used within a week. To carry out the enzyme inhibition assays under linear conditions, the final point test system for kinase activity measurement was used. Kinase was added to reaction mixture in such a way as to obtain linear activity with respect to the concentration of enzyme and with respect to time. For determination of kinase inhibition the reaction mixture contained 1 mg/ml histone H1 (type III-S, Sigma) in the presence of 15 μM ATP, 0.05 μCi [γ-^33P]ATP and the tested compound in a final volume of 10 μl; all in reaction buffer (50 mM HEPES, 10 mM MgCl2, 5 mM EGTA, 10 mM 2-glycerolphosphate, 1 mM NaF, 1 mM DTT, pH 7.4). After 20 min incubation, the reactions were stopped by the addition of 5 μl of a 3% H3PO4, aliquots were spotted on P-81 phosphocellulose (Whatman, USA) that was subsequently washed 3× with 5% H3PO4 and finally air dried. The measurements of kinase inhibition employed digital image analyzer BAS-1800 (Fujifilm, Japan). Kinase activity was usually expressed as a percentage of maximum activity. […] For the purpose of kinetic analysis, the activity was expressed as arbitrary units (AU) of digital image analyzer signal.

CDK2/cyclin E = molecular target: T2, CDK2/cyclin E (Homo sapiens, UniProt P24941); experiment: CDK2/cyclin E kinase inhibition assay (histone H1, [γ-33P]ATP); format: biochemical; conditions: for IC50: averaged from triplicates, 15 μM ATP
T2 construct: made in house; host or cells: Sf9 insect cells (baculovirus co-infection)
Protocol: as §1

[1] = tested on: HOS (human osteogenic sarcoma); experiment: In vitro cytotoxicity, Calcein AM, 72 h; format: cell-based
Protocol: (§2) Tested drugs were added to the cell cultures in six different concentration and kept at 37° C. and 5% CO2 for three days.
(§3) The cells, cultured in DMEM (supplemented with 10% fetal calf serum, 4 mM glutamine, 100 IU/ml penicillin, 100 μg/ml streptomycin) in a humidified CO2 incubator at 37° C., were redistributed into 96-well microtitre plates (10.000 cells per well). After 12 h preincubation, tested compounds in six-fold dilutions were added. Treatment of cells with the tested compounds (in the 1-100 μM range) lasted for 72 h.

[2] = tested on: K562 (human chronic myeloblastic leukemia); experiment: In vitro cytotoxicity, Calcein AM, 72 h; format: cell-based; conditions: 72 h
Protocol: as §2, §3

[3] = tested on: MCF7 (human breast adenocarcinoma); experiment: In vitro cytotoxicity, Calcein AM, 72 h; format: cell-based; conditions: 72 h
Protocol: as §2, §3

[4] = tested on: G 361 (human malignant melanoma); experiment: In vitro cytotoxicity, Calcein AM, 72 h; format: cell-based; conditions: 72 h
Protocol: as §2, §3

| SMILES | IC50 (CDK1/cyclin B) [µM] | IC50 (CDK2/cyclin E) [µM] | also measured |
| --- | --- | --- | --- |
| Nc1n[nH]c(N)c1N=Nc1ccc(S(=O)(=O)Nc2nccs2)cc1 [Compound 20b, 4-[(3,5-diaminopyrazol-4-yl)azo]-N-(thiazol-2-yl)-benzensulfonamide] | > 100 | > 100 | – |
| Cc1cc(C)nc(NS(=O)(=O)c2ccc(N=Nc3c(N)n[nH]c3N)cc2)n1 [Compound 21b, 4-[(3,5-diamino-pyrazol-4-yl)-azo]-N-(4,6-dimethylpyrimidin-2-yl)benzensulfonamide] | > 100 | > 100 | inhibition of the enzyme CDK2 (in words) (CDK2/cyclin E): failed to inhibit the enzyme |
| COc1cnc(NS(=O)(=O)c2ccc(N=Nc3c(N)n[nH]c3N)cc2)nc1 [Compound 22b, 4-[(3,5-diamino-pyrazol-4-yl)-azo]-N-(5-methoxypyrimidin-2-yl)-benzensulfonamide] | > 100 | > 100 | – |
| COc1ccc(NS(=O)(=O)c2ccc(N=Nc3c(N)n[nH]c3N)cc2)nn1 [Compound 23b, 4-[(3,5-diamino-pyrazol-4-yl)-azo]-N-(6-methoxypyridazin-3-yl)-benzensulfonamide] | > 100 | > 100 | – |
| Nc1n[nH]c(N)c1/N=N/c1ccc(-c2nc3ccccc3[nH]c2=O)cc1 [Compound 24b] | > 100 | > 100 | – |
| Nc1n[nH]c(N)c1/N=N/c1ccccc1-c1nc2ccccc2[nH]c1=O [Compound 25b] | > 100 | > 100 | – |
| Nc1n[nH]c(N)c1N=Nc1ccccc1Cc1nc2ccccc2[nH]c1=O [Compound 26b] | – | 95 | – |
| Nc1n[nH]c(N)c1N=Nc1cccc2ccccc12 [Compound 28b, 3,5-diamino-4-(naphth-1-yl)azo-pyrazole] | 5.5 | 10 | IC50 ([1]; Calcein AM, triplicates, read-out: IC50 (μM) HOS): > 100 µM; % of viable cells HOS ([1]; at 100 μM): (79 ± 8%); IC50 ([2]; Calcein AM, triplicates, read-out: IC50 (μM) K562): 50 ± 3 µM; % of viable cells K562 ([2]; at 100 μM): (7.7 ± 6%); IC50 ([3]; Calcein AM, triplicates, read-out: IC50 (μM) MCF7): > 100 µM; % of viable cells MCF7 ([3]; at 100 μM): (56 ± 1%); IC50 ([4]; Calcein AM, triplicates, read-out: IC50 (μM) G361): > 100 µM; % of viable cells G361 ([4]; at 100 μM): (55 ± 14%) |
| Nc1n[nH]c(N)c1N=Nc1ccc2ccccc2c1 [Compound 29b, 3,5-diamino-4-(naphth-2-yl)azo-pyrazole] | 16 | 15 | – |

More lines, main results first:

| IC50 (CDK1/cyclin B) [µM] | IC50 (CDK2/cyclin E) [µM] | SMILES | also measured |
| --- | --- | --- | --- |
| > 100 | > 100 | Cc1cc2nc(Cc3ccccc3N=Nc3c(N)n[nH]c3N)c(=O)[nH]c2cc1C [Compound 27b] | – |
| > 100 | > 100 | Cc1c(/N=N/c2c(N)n[nH]c2N)c(=O)n(-c2ccccc2)n1C [Compound 31b] | – |
| > 100 | > 100 | Nc1n[nH]c(N)c1/N=N/c1ccc(C(=O)c2ccc(/N=N/c3c(N)n[nH]c3N)cc2)cc1 [Compound 32d] | – |
| > 100 | > 100 | Nc1n[nH]c(N)c1/N=N/c1cccc(C(=O)c2cccc(/N=N/c3c(N)n[nH]c3N)c2)c1 [Compound 33d] | – |
| > 100 | > 100 | Nc1n[nH]c(N)c1/N=N/c1ccc(S(=O)(=O)c2ccc(/N=N/c3c(N)n[nH]c3N)cc2)cc1 [Compound 34d] | – |
| > 100 | > 100 | Nc1n[nH]c(N)c1/N=N/c1cccc(S(=O)(=O)c2cccc(/N=N/c3c(N)n[nH]c3N)c2)c1 [Compound 35d] | – |
